Some results are limits rather than exact numbers.

For one experiment, the target named is T1, XIAP-BIR3 (Homo sapiens, UniProt P98170).
T1 construct: XIAP-BIR3; purchased Reaction Biology APT-11-374
Description: XIAP-BIR3 fluorescence polarization binding assay. The note with it: FP, probe AbuRPFK-5FAM (SM5F) 5 nM, XIAP-BIR3 40 nM, 60 min at 25° C. The text has this:
(§1) IAPs are one main cause of cancer development and may result from overexpression of anti-apoptotic proteins. This protocol establishes three binding assays for […] Bir3 domain, cIAP1 and cIAP2 using FP (fluorescence polariation) technology. The fluorescence probe used is a synthetic peptide conjugated to 5-carboxyfluorescein (AbuRPFK-5FAM). The fluorescence polarization value (mP) was detected by Envision, which was used to reflect the binding degree of protein and fluorescent marker.
(§2) • a. Prepare 100 times of the final cpd concentration in appropriate tube and transfer 5 uL cpd to 45 μL 1× reaction buffer with 10% DMSO • b. The final reference cpd concentration is 10000, 3333.3, 1111.1, 370.4, 123.4, 41.2, 13.7, 4.57, 1.52, 0.51, 0.17 and 0 nM. So the 100 times of the concentration is 1000, 333.3, 111.1, 37.04, 12.34, 4.12, […], 0.15, 0.05, 0.017 and 0 μM. The final test cpds concentration is 3333.3, 1111.1, 370.4, 123.4, 41.2, 13.7, 4.57, 1.52, 0.51, 0.17, 0.057 and 0 nM. So the 100 times of the concentration is 333.3, 111.1, 37.04, 12.34, 4.12, […], 0.15, 0.05, 0.017, 0.0057 and […] • c. Add 8 μL/well each dose enzyme to 384 wen microplate (ProxiPlate-384 F Plus, 6008260) using multichannel pipette, prepared in Table 3. • d. Centrifuge at 1000 rpm • e. Add 2 μL/well cpd to 384 well microplate (ProxiPlate-384 F Plus, 6008260) using multichannel pipette, prepared in step a). • f. Centrifuge at 1000 rpm RT, 15 min. • g Start the assay by adding 10 uL/well substrate (prepared in Table 4) to the same 384 wen microplate using multichannel pipette. • h. Centrifuge at 1000 rpm. • i. Cover the assay plate and incubate for 60 min at 25° C. • j. Read on Envision 2104 for mP and plot the IC50s with mP values. • k. Data analysis: IC50s were determined based on a non-linear regression analysis of data collected.
Background: Polarisation of emitted light reports the rotation of a fluorescent probe.

A further experiment addresses T2, cIAP2-BIR3 (Homo sapiens, UniProt Q13489).
T2 construct: cIAP2-BIR3; purchased Reaction Biology APT-11-372
The experiment is described as follows: cIAP2-BIR3 fluorescence polarization binding assay. The note with it: FP, probe AbuRPFK-5FAM (SM5F) 5 nM, cIAP2-BIR3 80 nM, 60 min at 25° C.
Source text: as §1, §2

Another experiment addresses T3, cIAP1-BIR3 (Homo sapiens, UniProt Q13490).
T3 construct: cIAP1-BIR3; purchased Reaction Biology APT-11-370
The experiment is described as follows: cIAP1-BIR3 fluorescence polarization binding assay. The conditions noted are these: FP, probe AbuRPFK-5FAM (SM5F) 5 nM, cIAP1-BIR3 15 nM, 60 min at 25° C.
Source text: as §1, §2

T1 sequence (P98170 241-356 limits assumed): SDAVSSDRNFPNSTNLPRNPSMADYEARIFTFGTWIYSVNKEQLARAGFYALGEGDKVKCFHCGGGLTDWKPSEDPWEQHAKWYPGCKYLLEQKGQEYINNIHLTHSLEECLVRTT
T3 sequence (Q13490 253-363 limits assumed): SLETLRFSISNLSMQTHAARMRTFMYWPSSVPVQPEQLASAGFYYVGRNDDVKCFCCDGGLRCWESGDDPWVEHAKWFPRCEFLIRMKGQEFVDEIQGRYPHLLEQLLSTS
T2 sequence (Q13489 238-349 limits assumed): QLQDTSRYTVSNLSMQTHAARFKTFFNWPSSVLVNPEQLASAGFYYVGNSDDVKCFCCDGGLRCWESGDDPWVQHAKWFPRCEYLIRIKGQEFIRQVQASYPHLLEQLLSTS

For `CN[C@@H](C)C(=O)N[C@H](C(=O)N1CCC[C@H]1C(=O)N[C@@H]1CCCc2c(-c3cccc(-c4cccc5c4CCC[C@H]5NC(=O)[C@@H]4CCCN4C(=O)[C@@H](NC(=O)[C@H](C)NC)C(C)(C)C)c3)cccc21)C(C)(C)C` [Compound III-F, (2S)-1-[(2S)-3,3-dimethyl-2-[(2S)-2-(methylamino)propanamido]butanoyl]-N-[(1R)-5-[3-[(5R)-5-[(2S)-1-[(2S)-3,3-dimethyl-2-[(2S)-2-(methylamino)propanamido]butanoyl]pyrrolidine-2-amido]-5,6,7,8-tetrahydronaphthalen-1-yl]phenyl]-1,2,3,4-tetrahydronaphthalen-1-yl]pyrrolidine-2-carboxamide], the 50% inhibitory concentration (IC50) (commonly the concentration that gives 50% inhibition) fell in the range of 10 to 100 nM on XIAP-BIR3, 10 to 100 nM at cIAP2-BIR3 and 1 to 10 nM on cIAP1-BIR3.
On to `CN[C@@H](C)C(=O)N[C@H](C(=O)N1CCC[C@H]1C(=O)N[C@@H]1CCCc2c(-c3ccc(-c4ccc(-c5cccc6c5CCC[C@H]6NC(=O)[C@@H]5CCCN5C(=O)[C@@H](NC(=O)[C@H](C)NC)C5CCCCC5)cc4)cc3)cccc21)C1CCCCC1` [Compound III-G, (S)-1-((S)-2-cyclohexyl-2-((S)-2-(methylamino)propanamido)acetyl)-N—((R)-5-(4′-((R)-5-((S)-1-((S)-2-cyclohexyl-2-((S)-2-(methylamino)propanamido)acetyl)pyrrolidine-2-carboxamido)-5,6,7,8-tetrahydronaphthalen-1-yl)-[1,1′-biphenyl]-4-yl)-1,2,3,4-tetrahydronaphthalen-1-yl)pyrrolidine-2-carboxamide], for which the figures for the 50% inhibitory concentration (IC50) on XIAP-BIR3, at cIAP2-BIR3 and on cIAP1-BIR3 were 100 to 1000 nM, 10 to 100 nM and 1 to 10 nM, respectively.
For `CN[C@@H](C)C(=O)N[C@@H](C)C(=O)N1CCC[C@H]1C(=O)N[C@@H]1CCCc2c(-c3ccc(-c4cccc5c4CCC[C@H]5NC(=O)[C@@H]4CCCN4C(=O)[C@H](C)NC(=O)[C@H](C)NC)cc3)cccc21` [Compound III-H, (2S)-1-[(2S)-2-[(2S)-2-(methylamino)propanamido]propanoyl]-N-[(1R)-5-[4-[(5R)-5-[(2S)-1-[(2S)-2-[(2S)-2-(methylamino)propanamido]propanoyl]pyrrolidine-2-amido]-5,6,7,8-tetrahydronaphthalen-1-yl]phenyl]-1,2,3,4-tetrahydronaphthalen-1-yl]pyrrolidine-2-carboxamide] the same measures were 100 to 1000 nM, 10 to 100 nM and 1 to 10 nM.
For `CN[C@@H](C)C(=O)N[C@H](C(=O)N1CCC[C@H]1C(=O)N[C@@H]1CCCc2c(-c3ccc(-c4cccc5c4CCC[C@H]5NC(=O)[C@@H]4CCCN4C(=O)[C@@H](NC(=O)[C@H](C)NC)C(C)(C)C)cc3)cccc21)C(C)(C)C` [Compound III-J, (2S)-1-[(2S)-3,3-dimethyl-2-[(2S)-2-(methylamino)propanamido]butanoyl]-N-[(1R)-5-[4-[(5R)-5-[(2S)-[-(2S)-3,3-dimethyl-2-[(2S)-2-(methylamino)propanamido]butanoyl]pyrrolidine-2-amido]-5,6,7,8-tetrahydronaphthalen-1-yl]phenyl]-1,2,3,4-tetrahydronaphthalen-1-yl]pyrrolidine-2-carboxamide] the same measures were 10 to 100 nM, 1 to 10 nM and 1 to 10 nM.
Take `CN[C@@H](C)C(=O)N[C@H](C(=O)N1C[C@@H](O)C[C@H]1C(=O)N[C@@H]1CCCc2c(-c3ccc(-c4cccc5c4CCC[C@H]5NC(=O)[C@@H]4C[C@H](O)CN4C(=O)[C@@H](NC(=O)[C@H](C)NC)C4CCCCC4)cc3)cccc21)C1CCCCC1` [Compound III-K, (2S,4S)-1-[(2S)-2-cyclohexyl-2-[(2S)-2-(methylamino)propanamido]acetyl]-N-[(1R)-5-[4-[(5R)-5-[(2S,4S)-1-[(2S)-2-cyclohexyl-2-[(2S)-2-(methylamino)propanamido]acetyl]-4-hydroxypyrrolidine-2-amido]-5,6,7,8-tetrahydmnaphthalen-1-yl]phenyl]-1,2,3,4-tetrahydronaphthalen-1-yl]-4-hydroxypyrrolidine-2-carboxamide]: the IC50 on XIAP-BIR3 was 10 to 100 nM; at cIAP2-BIR3, 1 to 10 nM; on cIAP1-BIR3, 1 to 10 nM.
For `CN[C@@H](C)C(=O)N[C@H](C(=O)N1CCC[C@H]1C(=O)N[C@@H]1CCCc2cc(-c3ccc(-c4ccc5c(c4)CCC[C@H]5NC(=O)[C@@H]4CCCN4C(=O)[C@@H](NC(=O)[C@H](C)NC)C4CCCCC4)cc3)ccc21)C1CCCCC1` [Compound III-L, (2S)-1-[(2S)-2-cyclohexyl-2-[(2S)-2-(methylamino)propanamido]acetyl]-N-[(1R)-6-[4-[(5R)-5-[(2S)-1-[(2S)-2-cyclohexyl-2-[(2S)-2-(methylamino)propanamido]acetyl]pyrolidine-2-amido]-5,6,7,8-tetrahydronaphthalen-2-yl]phenyl]-1,2,3,4-tetrahydronaphthalen-1-yl]pyrrolidine-2-carboxamide], the results for the IC50 on XIAP-BIR3, at cIAP2-BIR3 and at cIAP1-BIR3 were 100 to 1000 nM, 100 to 1000 nM and 10 to 100 nM, respectively.
In the case of `CN[C@@H](C)C(=O)N[C@H](C(=O)N1CCC[C@@H]1C(=O)N[C@@H]1CCCc2ccc(-c3ccc(-c4ccc5c(c4)[C@H](NC(=O)[C@@H]4CCCN4C(=O)[C@@H](NC(=O)[C@H](C)NC)C4CCCCC4)CCC5)cc3)cc21)C1CCCCC1` [Compound III-M, (2S)-1-[(2S)-2-cyclohexyl-2-[(2S)-2-(methylamino)propanamido]acetyl]-N-[(1R)-7-[4-[(8R)-8-[(2R)-1-[(2S)-2-cyclohexyl-2-[(2S)-2-(methylamino)propanamido]acetyl]pyrrolidine-2-amido]-5,6,7,8-tetrahydronaphthalen-2-yl]phenyl]-1,2,3,4-tetrahydronaphthalen-1-yl]pyrrolidine-2-carboxamide], the IC50 is above 1000 nM at XIAP-BIR3, 100 to 1000 nM at cIAP2-BIR3 and 10 to 100 nM at cIAP1-BIR3.
Turning to `CN[C@@H](C)C(=O)N[C@H](C(=O)N1CCC[C@H]1C(=O)N[C@@H]1CCCc2c(OCCc3ccc(CCOc4cccc5c4CCC[C@H]5NC(=O)[C@@H]4CCCN4C(=O)[C@@H](NC(=O)[C@H](C)NC)C4CCCCC4)cc3)cccc21)C1CCCCC1` [Compound IV, (2S)-1-[(2S)-2-Cyclohexyl-2-[(2S)-2-(methylamino)propanamido]acetyl]-N-[(1R)-5-[2-[4-(2-[[(5R)-5-[(2S)-1-[(2S)-2-cyclohexyl-2-[(2S)-2-(methylamino)propanamido]acetyl]pyrrolidine-2-amido]-5,6,7,8-tetrahydronaphthalen-1-yl]oxy]ethyl)phenyl]ethoxy]-1,2,3,4-tetrahydronaphthalen-1-yl]pyrrolidine-2-carboxamide], the IC50 at XIAP-BIR3 was in the range of 100 to 1000 nM; at cIAP2-BIR3, 10 to 100 nM; on cIAP1-BIR3, 10 to 100 nM.
As for `CN[C@@H](C)C(=O)N[C@H](C(=O)N1CCC[C@H]1C(=O)N[C@@H]1CCCc2c(OC/C=C/COc3cccc4c3CCC[C@H]4NC(=O)[C@@H]3CCCN3C(=O)[C@@H](NC(=O)[C@H](C)NC)C3CCCCC3)cccc21)C1CCCCC1` [Compound IV-A, (2S)-1-[(2S)-2-Cyclohexyl-2-[(2S)-2-(methylamino)propanamido]acetyl]-N-[(1R)-5-[[(2E)-4-[[(5R)-5-[(2S)-1-[(2S)-2-cyclohexyl-2-[(2S)-2-(methylamino)propanamido]acetyl]pyrrolidine-2-amido]-5,6,7,8-tetrahydronaphthalen-1-yl]oxy]but-2-en-1-yl]oxy]-1,2,3,4-tetrahydronaphthalen-1-yl]pyrrolidine-2-carboxamide], the figures for the IC50 at XIAP-BIR3, at cIAP2-BIR3 and at cIAP1-BIR3 were 10 to 100 nM, 10 to 100 nM and 1 to 10 nM, respectively.
For `CN[C@@H](C)C(=O)N[C@H](C(=O)N1CCC[C@H]1C(=O)N[C@@H]1CCCc2c(OCC#CCOc3cccc4c3CCC[C@H]4NC(=O)[C@@H]3CCCN3C(=O)[C@@H](NC(=O)[C@H](C)NC)C3CCCCC3)cccc21)C1CCCCC1` [Compound IV-B, (S)-1-((S)-2-Cyclohexyl-2-((S)-2-(methylamino)propanamido)acetyl)-N—((R)-5-(4-((R)-5-((S)-1-((S)-2-cyclohexyl-2-((S)-2-(methylamino)propanamido)acetyl)pyrrolidine-2-carboxamido)-5,6,7,8-tetrahydronaphthalen-1-yloxy)but-2-ynyloxy)-1,2,3,4-tetrahydronaphthalen-1-yl)pyrrolidine-2-carboxamide], the half-inhibitory concentration (IC50) at XIAP-BIR3 lay within 10 to 100 nM; at cIAP2-BIR3 it was 10 to 100 nM; at cIAP1-BIR3 it was 1 to 10 nM.

The values are drawn from patent US20220220152A1, “BIVALENT ANTAGONISTS OF INHIBITORS OF APOPTOSIS PROTEINS” (Hepagene Therapeutics (HK) Limited, priority 2019, published 2022).
